Experimental data as given in the supplement of paper PMC9337992.
± gives the standard deviation of the averaged measurements.

Assays:
Test in all cases: cell confluence relative to DMSO control; higher = less growth inhibition
Conditions in all cases: 5 d
MDA-MB-157 = tested on: MDA-MB-157
Experimental: (§1)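 MS023 dose-response (9 concentrations, 40 nM to 10 uM) across TNBC cell lines. Cell confluence was monitored by IncuCyte live-cell imaging for 5 d and normalised to DMSO; n = 4 replicates.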

BT549 = tested on: BT549
Experimental: as §1

MDA-MB436 = tested on: MDA-MB436
Experimental: as §1

Hs578T = tested on: Hs578T
Experimental: as §1

BT20 = tested on: BT20
Experimental: as §1

HCC1143 = tested on: HCC1143
Experimental: as §1

CAL120 = tested on: CAL120
Experimental: as §1

HCC38 = tested on: HCC38
Experimental: as §1

MDA-MB468 = tested on: MDA-MB468
Experimental: as §1

SUM159 = tested on: SUM159
Experimental: as §1

SUM149 = tested on: SUM149
Experimental: as §1

HCC70 = tested on: HCC70
Experimental: as §1

HCC3153 = tested on: HCC3153
Experimental: as §1

MX1 = tested on: MX1
Experimental: as §1

HCC1395 = tested on: HCC1395
Experimental: as §1

MDAMB231 = tested on: MDAMB231
Experimental: as §1

CAL85-1 = tested on: CAL85-1
Experimental: as §1

HCC1806 = tested on: HCC1806
Experimental: as §1

CC(C)Oc1ccc(-c2c[nH]cc2CN(C)CCN)cc1 [MS023]
cell confluence [%]
Conditions	log10 MS023 concentration (log10 uM): 0.09691	log10 MS023 concentration (log10 uM): 0.39794	log10 MS023 concentration (log10 uM): 0.69897	log10 MS023 concentration (log10 uM): 1	log10 MS023 concentration (log10 uM): -0.20412	log10 MS023 concentration (log10 uM): -0.50515	log10 MS023 concentration (log10 uM): -0.80618	log10 MS023 concentration (log10 uM): -1.10721	log10 MS023 concentration (log10 uM): -1.40824
BT20	102 ± 5	98.2 ± 8.7	99.8 ± 4.7	91.7 ± 13	100 ± 5.7	102 ± 6	101 ± 5.1	93.8 ± 11	96.5 ± 5.5
BT549	91.8 ± 8.3	85.7 ± 7.7	61.5 ± 7.5	53.4 ± 7.6	99.5 ± 3	97.3 ± 8	103 ± 3.4	109 ± 8.2	98.8 ± 4.6
CAL85-1	84.2 ± 3.2	70.6 ± 3	59.1 ± 5.1	39.6 ± 1.6	95.4 ± 3	98.7 ± 1.4	99.6 ± 2.4	98.1 ± 1.3	96 ± 3.2
CAL120	100.06 ± 0.081	100.1 ± 0.14	100 ± 0.21	99.59 ± 0.47	100.2 ± 0.23	99.99 ± 0.22	100.2 ± 0.18	100 ± 0.26	100.1 ± 0.12
HCC38	95.7 ± 1	86.4 ± 5	76.9 ± 6.4	60.3 ± 8.9	98.1 ± 1.6	99.1 ± 1.1	100 ± 0.42	100.3 ± 0.22	100.1 ± 0.28
HCC70	73.3 ± 10	67.8 ± 7.8	54.4 ± 3.4	39.5 ± 0.84	86 ± 12	80 ± 12	91.3 ± 11	89.3 ± 5.6	96.6 ± 4.4
HCC1143	84.3 ± 6.3	52.5 ± 5.2	26 ± 5.3	21.1 ± 2.3	82.8 ± 10	89.9 ± 9.1	96.6 ± 2.6	100 ± 1.2	98.5 ± 2.5
HCC1395	101 ± 8	92.8 ± 13	70.3 ± 9.2	53.3 ± 3.7	102 ± 9.3	107 ± 9.3	107 ± 9	108 ± 9.3	108 ± 9.2
HCC1806	94.2 ± 3	97.4 ± 3.8	84.6 ± 2.5	66.6 ± 9.3	100 ± 1.9	100 ± 2.4	100 ± 3.6	101 ± 2.7	103 ± 1.8
HCC3153	95 ± 1.1	85.4 ± 2.5	67.3 ± 2.6	51.9 ± 3.1	98.1 ± 1.2	98.44 ± 0.83	99.3 ± 2.1	99.5 ± 1.1	98.93 ± 0.56
Hs578T	99.47 ± 0.24	97.79 ± 0.78	89.9 ± 1.9	79.6 ± 7.6	99.79 ± 0.14	99.921 ± 0.051	99.933 ± 0.042	99.898 ± 0.054	99.921 ± 0.051
MDA-MB436	70.9 ± 13	33.6 ± 5.4	24.4 ± 2.2	22.9 ± 3.1	78.1 ± 3.8	82.9 ± 8.3	97.9 ± 8.7	96.2 ± 11	100 ± 2.5
MDA-MB468	58.7 ± 3.8	35.8 ± 2.1	36.3 ± 3.1	25.3 ± 3.6	79.5 ± 4.7	95.1 ± 4.7	94.8 ± 5.9	96.2 ± 5.2	98.5 ± 7
MDA-MB-157	93.1 ± 6.2	93.3 ± 8.1	88.9 ± 7	81.4 ± 8.7	95.6 ± 11	101 ± 8.3	99.7 ± 1.9	100 ± 6	98.2 ± 3.8
MDAMB231	96.77 ± 0.61	88.2 ± 3.7	71 ± 3.9	61.1 ± 3.6	99.56 ± 0.35	99.8 ± 0.07	99.9 ± 0.1	99.943 ± 0.053	99.978 ± 0.014
MX1	93.6 ± 1	83.1 ± 1.4	48.8 ± 3.2	33.3 ± 1.8	95.8 ± 1.8	100 ± 1.4	99.8 ± 1.8	97.8 ± 3.8	98.4 ± 1.6
SUM149	94.1 ± 6.1	79.9 ± 12	53.5 ± 17	38.4 ± 8.9	99.14 ± 0.98	98.7 ± 2.5	97.9 ± 4.1	99.1 ± 1.7	95.4 ± 7.5
SUM159	93 ± 9	49.6 ± 14	25.1 ± 6.7	26.3 ± 8.2	98.2 ± 1.8	99.11 ± 0.49	99.03 ± 0.93	99.4 ± 1	98.1 ± 3
